From US5763597A, “Orally active adenosine kinase inhibitors” (priority 1996, dated 1998) come the findings set out here.

For series [1], the system named is liver enzymes and total bilirubin in female SA rats. In words: Liver toxicity (serum liver enzymes and bilirubin). The class given is in vivo. As to conditions: rat, 2 x 37.5 μmole/kg iv infusion, 12 h after second dose; for Total Bilirubin: vehicle 0.10 ±0.04; for SGPT: vehicle 80 ±10; for SGOT: vehicle 102 ±12. As to the method:
Female SA rats (150-200 g) were anesthetized with halothane and a chronic catheter was placed in the internal jugular vein. The animals were allowed to recover for 3 days. […] Twelve hours later, an additional 37.5 μmole/kg was infused over 40 minutes (total dose=75 μmole/kg). Twelve hours after the second dose, the animals were anesthetized with halothane and exsanguinated through the descending aorta. Liver enzymes (serum glutamic-oxaloacetic transaminase (SGOT), serum glutamic-pyruvic transaminase (SGPT), alkaline phosphatase) and total bilirubin in the serum samples were determined by a commercial laboratory.

The next series has as its target adenosine kinase. As to the kind of experiment: AK inhibition (adenosine kinase activity, [U-14C] adenosine). Type of series: biochemical, partially purified pig heart or recombinant human. As to conditions: 0.5 μM adenosine, 1 mM ATP, pH 7.0, 20 min; pig heart or recombinant human enzyme. The protocol:
Adenosine kinase activity was measured essentially as described by Yamada et al. Biochim. Biophys. Acta 660, 3643 (1988) with a few minor modifications. Assay mixtures contained 50 mM TRIS-maleate buffer, pH 7.0, 0.1% BSA, 1 mM ATP 1 mM MgCl2, 0.5 μM [U-^14 C] adenosine (400-600 mCi/mmol) and varying duplicate concentrations of inhibitor. […] The amount of ^14 C-AMP was quantified by scintillation counting.

Series [2] has as its system carrageenan paw swelling in rats. As to the kind of experiment: Anti-inflammatory activity, carrageenan paw swelling. The class given is in vivo. To be noted: rat, swelling after 3 hours; for Carrageenan Paw (% inh) ip: 10 mg/kg ip, 30 min before carrageenan; for Carrageenan Paw (% inh) po: 10 mg/kg po, 1 h before carrageenan. (In general: Carrageenan injected into the paw causes an acute inflammation.)

For `C[C@H]1O[C@@H](n2cc(I)c3c(N)ncnc32)[C@H](O)[C@@H]1O` [REF. A, reference compound], in series [1], the “Total Bilirubin” value turned out to be 0.76 mg/dL and the SGPT was 76 IU/L.
As to `NC[C@H]1O[C@@H](n2nc(Br)c3c(N)ncnc32)[C@H](O)[C@@H]1O` [REF. B, 4amino-1-(5-amino-5-deoxy-1-D-ribofuranosyl)-3-bromopyrazolo[3,4d]pyrimidine, reference compound], in series [1], the “Total Bilirubin” value is 0.30 mg/dL, the SGPT worked out at 41 IU/L and the SGOT is on record as 100 IU/L.
The IC50 is the point on the concentration scale where inhibition reaches its midpoint. For `C[C@H]1O[C@@H](n2cc(-c3ccccc3)c3c(Nc4cc(F)cc(F)c4)ncnc32)[C@H](O)[C@@H]1O` [compound 10], the concentration for half-maximal inhibition (IC50) on adenosine kinase came to 1 nM.
For the molecule `C[C@H]1O[C@@H](n2cc(-c3ccccc3)c3c(Nc4ccc(F)c(F)c4)ncnc32)[C@H](O)[C@@H]1O` [compound 11], the IC50 on adenosine kinase worked out at 4 nM.
For the molecule `COc1ccc(Nc2ncnc3c2c(-c2ccccc2)cn3[C@@H]2O[C@H](C)[C@@H](O)[C@H]2O)cc1` [compound 13], the IC50 on adenosine kinase amounted to 6 nM.
Regarding `C[C@H]1O[C@@H](n2cc(-c3cccc(Cl)c3)c3c(Nc4ccccc4)ncnc32)[C@H](O)[C@@H]1O` [compound 15], the IC50 at adenosine kinase is 16 nM.
Still for that read-out and setting: the result for `Cc1ccc(-c2cn([C@@H]3O[C@H](C)[C@@H](O)[C@H]3O)c3ncnc(Nc4ccccc4)c23)cc1` [compound 16] reads 9 nM.
With `C[C@H]1O[C@@H](n2cc(-c3ccccc3)c3c(Nc4cccc(Cl)c4)ncnc32)[C@H](O)[C@@H]1O` [compound 17], the IC50 on adenosine kinase is 17 nM.
`Cc1cccc(Nc2ncnc3c2c(-c2ccccc2)cn3[C@@H]2O[C@H](C)[C@@H](O)[C@H]2O)c1` [compound 18]: the IC50 on adenosine kinase stood at 4 nM.
For `C[C@H]1O[C@@H](n2cc(-c3ccccc3)c3c(Nc4cccc(F)c4)ncnc32)[C@H](O)[C@@H]1O` [compound 19], the IC50 on adenosine kinase amounted to 2 nM.
On to `C[C@H]1O[C@@H](n2cc(-c3ccccc3)c3c(Nc4ccc(O)cc4)ncnc32)[C@H](O)[C@@H]1O` [compound 20], for which the IC50 at adenosine kinase came to 32 nM.
For `C[C@H]1O[C@@H](n2cc(-c3ccc(F)cc3)c3c(Nc4ccccc4)ncnc32)[C@H](O)[C@@H]1O` [compound 24], the IC50 at adenosine kinase came to 1 nM. In series [2], the “Carrageenan Paw (% inh) ip” value turned out to be 35.6 % inh and the “Carrageenan Paw (% inh) po” value stood at 21.3 % inh.
As to `CCc1ccc(Nc2ncnc3c2c(-c2ccccc2)cn3[C@@H]2O[C@H](C)[C@@H](O)[C@H]2O)cc1` [compound 29], at adenosine kinase, the IC50 was 20 nM. In series [2], the “Carrageenan Paw (% inh) ip” value came out at 46.1 % inh and the “Carrageenan Paw (% inh) po” value is recorded as 10.7 % inh.
In the case of `C[C@H]1O[C@@H](n2cc(-c3cccc([N+](=O)[O-])c3)c3c(Nc4ccc(F)cc4)ncnc32)[C@H](O)[C@@H]1O` [compound 30], the IC50 on adenosine kinase turned out to be 28 nM.
As to `COc1ccc(-c2cn([C@@H]3O[C@H](C)[C@@H](O)[C@H]3O)c3ncnc(Nc4ccc(C(N)=O)cc4)c23)cc1` [compound 31], the IC50 on adenosine kinase was determined as 2 nM. For the same molecule, in series [2], the “Carrageenan Paw (% inh) ip” value is given as 17.2 % inh and the “Carrageenan Paw (% inh) po” value came to 0 % inh.
Turning to `C[C@H]1O[C@@H](n2cc(-c3ccccc3)c3c(NCc4ccccc4)ncnc32)[C@H](O)[C@@H]1O` [compound 38], the concentration for half-maximal inhibition (IC50) on adenosine kinase turned out to be 30 nM.
Take `CSc1ccc(Nc2ncnc3c2c(-c2ccccc2)cn3[C@@H]2O[C@H](C)[C@@H](O)[C@H]2O)cc1` [compound 40]: the IC50 at adenosine kinase came out at 2 nM.
Take `C[C@H]1O[C@@H](n2c(Br)c(-c3ccccc3)c3c(Nc4ccc(F)cc4)ncnc32)[C@H](O)[C@@H]1O` [compound 41]: at adenosine kinase, the IC50 is 42 nM.
Same read-out and setting: to `C[C@H]1O[C@@H](n2nc(-c3ccccc3)c3c(Nc4ccccc4)ncnc32)[C@H](O)[C@@H]1O` [compound 86] belongs 4.5 nM; to `[N-]=[N+]=NC[C@H]1O[C@@H](n2nc(-c3ccccc3)c3c(Nc4ccccc4)ncnc32)[C@H](O)[C@@H]1O` [compound 87], 4.5 nM; to `OC[C@H]1O[C@@H](n2nc(-c3ccccc3)c3c(Nc4ccccc4)ncnc32)[C@H](O)[C@@H]1O` [compound 88], 5 nM.
Take `COc1ccc(Nc2ncnc3c2c(-c2ccccc2)nn3[C@@H]2O[C@H](C)[C@@H](O)[C@H]2O)cc1` [compound 89]: at adenosine kinase, the IC50 came to 17 nM.
Take `COc1ccc(Nc2ncnc3c2c(-c2ccccc2)nn3[C@@H]2O[C@H](CN=[N+]=[N-])[C@@H](O)[C@H]2O)cc1` [compound 90]: the IC50 on adenosine kinase worked out at 8 nM.
Turning to `C[C@H]1O[C@@H](n2nc(-c3ccccc3)c3c(Nc4ccc(Cl)cc4)ncnc32)[C@H](O)[C@@H]1O` [compound 91], the IC50 on adenosine kinase came out at 11 nM.
For `[N-]=[N+]=NC[C@H]1O[C@@H](n2nc(-c3ccccc3)c3c(Nc4ccc(Cl)cc4)ncnc32)[C@H](O)[C@@H]1O` [compound 92], the IC50 at adenosine kinase was 17 nM.
Still for that read-out and setting: the result for `Cc1ccc(-c2nn([C@@H]3O[C@H](CN=[N+]=[N-])[C@@H](O)[C@H]3O)c3ncnc(Nc4ccccc4)c23)cc1` [compound 93] reads 20 nM; that for `COc1ccc(-c2nn([C@@H]3O[C@H](CN=[N+]=[N-])[C@@H](O)[C@H]3O)c3ncnc(Nc4ccccc4)c23)cc1` [compound 94], 3 nM; that for `COc1ccc(-c2nn([C@@H]3O[C@H](CN=[N+]=[N-])[C@@H](O)[C@H]3O)c3ncnc(Nc4ccc(C)cc4)c23)cc1` [compound 95], 7 nM.
On to `[N-]=[N+]=NC[C@H]1O[C@@H](n2nc(-c3ccc(Cl)cc3)c3c(Nc4ccccc4)ncnc32)[C@H](O)[C@@H]1O` [compound 96], for which, at adenosine kinase, the IC50 worked out at 15 nM.
For the molecule `CCOCc1ccc(Nc2ncnc3c2c(-c2ccccc2)cn3[C@@H]2O[C@H](C)[C@@H](O)[C@H]2O)cc1` [compound 125], on adenosine kinase, the IC50 worked out at 2 nM. Further, in series [2], the “Carrageenan Paw (% inh) ip” value was found to be 24.4 % inh and the “Carrageenan Paw (% inh) po” value was 0.0 % inh.
For `C[C@H]1O[C@@H](n2cc(-c3ccccc3)c3c(Nc4ccc(CC#N)cc4)ncnc32)[C@H](O)[C@@H]1O` [compound 126], on adenosine kinase, the IC50 is 1 nM.
Consider `C[C@H]1O[C@@H](n2cc(-c3ccccc3)c3c(Nc4ccc(I)cc4)ncnc32)[C@H](O)[C@@H]1O` [compound 128], for which the IC50 on adenosine kinase was 4 nM. In addition, in series [2], the “Carrageenan Paw (% inh) ip” value is on record as 18.9 % inh and the “Carrageenan Paw (% inh) po” value amounted to 0.0 % inh.
Turning to `C[C@H]1O[C@@H](n2cc(-c3ccccc3)c3c(Nc4ccc(NC(=O)C(F)(F)F)cc4)ncnc32)[C@H](O)[C@@H]1O` [compound 129], on adenosine kinase, the IC50 was 2 nM. Besides, in series [2], the “Carrageenan Paw (% inh) ip” value worked out at 48.9 % inh and the “Carrageenan Paw (% inh) po” value was 35.7 % inh. Moreover, in series [1], the “Total Bilirubin” value came to 0.52 mg/dL, the SGPT is recorded as 54 IU/L and the SGOT was determined as 162 IU/L. Also, the “Alkaline Phosphatase” value in series [1] (vehicle 140 ±50) is 110 IU/L.
For `C[C@H]1O[C@@H](n2cc(-c3ccc(C#N)cc3)c3c(Nc4ccc(F)cc4)ncnc32)[C@H](O)[C@@H]1O` [compound 132], the IC50 on adenosine kinase came to 10 nM.
As for `C[C@H]1O[C@@H](n2cc(-c3ccc(CNC(N)=O)cc3)c3c(Nc4ccc(F)cc4)ncnc32)[C@H](O)[C@@H]1O` [compound 197], in series [2], the “Carrageenan Paw (% inh) ip” value is 16.3 % inh and the “Carrageenan Paw (% inh) po” value stood at 21.5 % inh.
